Source: patent US20200032249A1, “LABELING, ISOLATION, & ANALYSIS OF RNA FROM RARE CELL POPULATIONS” (priority 2017, published 2020)

Legend:
293T cells = test: anti-BrdU immunofluorescent staining of 293T cells treated with 5-FC or 5-FU; format: cell-based, human; details: untransfected control 293T cells, 250 μM, 24 h
Description: S. cerevisiae CD was exogenously expressed in human embryonic kidney 293T cells, and the cells were treated with 250 μM fluorocytosine (5-FC). This system is predicted to generate intracellular fluorouracil (5-FU), which is then incorporated into newly synthesized RNAs (FIG. 1a, b). Antibodies against bromodeoxyuridine (BrdU) can recognize BrdU and other halogenated uridines incorporated into nucleic acids (8).
(§1) Human embryonic kidney transformed with […] (293T) and human breast cancer MDA-MB-231 (MDA231) cells were cultured in DMEM High Glucose medium (Wheaton) supplemented with 10% Fetal Bovine Serum (Clontech, Catalog number 631106) supplemented with 2 mM L-Glutamine. All cell lines have been routinely tested for mycoplasma contamination. For the induction of CD or CD and UPRT, cells were treated with 1 μg/ml doxycycline for 24 h. For Fluorouracil tagging, cells were treated with 250 μM of 5-FC or 5-FU unless indicated. Where indicated, 125 μM thymine was added together with 5-FC. For the formation of stress granules, cells were treated with 500 μM Sodium Arsenite (Santa Cruz Biotechnologies, Catalog number SC-301816).
Cells were fixed with 4% paraformaldehyde for 10 min, permeabilized with 0.2% TritonX-100 for 10 min, blocked with 5% BSA for one hour at room temperature, prior to incubation with primary antibodies at 4° C. overnight, and secondary antibodies (Thermo Fisher anti-chicken antibody, Catalog number A-11039, Thermo Fisher anti-rat antibody, Catalog number A-11006, Abcam anti-rat antibody, Catalog number ab150117) incubated for 1 h at room temperature. Mouse lungs were fixed in 4% paraformaldehyde overnight at 4° C., embedded in paraffin and sectioned. The lung sections were deparaffinized and stained with hematolxylin/eosin or immunostained using standard protocols. Automated image analysis was performed using the FIJI software package.

MDA231 cells = test: stress granule formation by G3BP immunostaining; format: cell-based; details: 500 μM sodium arsenite, positive control
Description: FIG. 2a-b. Flura-tagging has minimal cytotoxicity. FIG. 2a—Effect of Flura-tagging on stress granule formation. MDA231 cells were treated with 5-FC for the indicated times, and the formation of stress granules was detected by G3BP immunostaining. Control cells were either treated with water or sodium arsenite (Arsenite) for one hour. Arrows indicate stress granules (n=3). Scale bar=20 μM. FIG. 2b—Effect of Flura-tagging on transcription. RNA expression in control cells was compared to CD/UPRT-expressing cells treated with the indicated concentrations of 5-FC for 4 h or 12 h. Each dot represents a gene, with the outer/lighter gray dots indicating genes showing more than 2-fold differential expression, as determined by DESeq2 (n=2). The dotted line represents the four-fold cutoff mark.
5-FU is extensively used as a chemotherapeutic agent for the treatment of solid tumors, based on its ability to induce cancer cell death by inhibiting thymidylate synthase and by causing DNA and RNA damage (12-14). It was therefore crucial to test whether our 5-FU-tagging method, which is based on low concentrations of 5-FC and short incubation time periods, has significant cytotoxic effects under our experimental conditions. CD/UPRT-expressing cells were treated with 5-FC at concentrations of up to 250 μM for up to 12 h (“Flura-tagged” cells), and the effects of this treatment on RNA damage response and transcriptional regulation were investigated.
A key feature of the RNA damage response is the formation of stress granules (15). Ras GTPase-activating protein-binding protein 1 (G3BP), a key component of stress granules, forms distinct foci during stress granule formation (12). We determined the dose- and time-dependent effect of 5-FC treatment on stress granule formation by immunostaining of the cells with anti-G3BP antibody. […] The 5-FC-treated cells started to form stress granules only after 24 h of treatment with 1 mM 5-FC, a concentration four times higher than the maximal concentration of 5-FC used for Flura-tagging, or after 48 h of 5-FC treatment at lower concentrations (FIG. 2a).
as §1, with “For the formation of stress granules, cells were treated with 500 μM Sodium Arsenite (Santa Cruz Biotechnologies, Catalog number SC-301816).” left out

[1] = test system: MDA231 cells expressing CD/UPRT in mouse lungs; test: signal-to-noise ratio of Flura-tagging and TU-tagging in vivo, lung colonization xenograft, RT-PCR; details: 250 mg/kg, 12 h post injection
Description: FIG. 3 a-g. Flura-tagging of mRNA in vivo. FIG. 3a—Schematic diagram of lung colonization xenograft assay used for evaluation of Flura-tagging/Flura-seq. Athymic mice were injected through the tail vein with 50,000 MDA231 cells expressing CD/UPRT and GFP-luciferase. Upon the development of detectable bioluminescent lung metastases (4 weeks), mice were treated with doxycycline to induce CD/UPRT expression and injected with 5-FC. Lungs were harvested, and Flura-tagged mRNAs were immunopurified. FIG. 3b—Comparison of signal-to-noise ratio of Flura-tagging and TU-tagging in vivo. Mice were injected with either 5-FC or TU, the Flura-tagged or TU-tagged mRNAs were purified 12 h post injection, and the relative fold enrichment of representative human housekeeping genes relative to representative murine housekeeping genes (mHPRT1, mLDH1, mPGK1 and mGAPDH), normalized to their corresponding unpurified inputs, were measured by RT-PCR (n=5, ±S.E.). FIG. 3c—Quantification of the number of human cells in the mouse lungs used for Flura-tagging. Half of the mouse lungs used for Flura-tagging in FIG. 3b was dissociated into single cells, and the number of RFP+ cells was quantified using flow cytometry. The total number of MDA231 cells per lung was estimated based on an assumption of 1.5×10^8 cells per mouse lung (20) (n=5). […] RNA reads were aligned to a hybrid genome containing the human and mouse genomes. […]

O=c1[nH]cc(F)c(=O)[nH]1 [5-FU, 5-fluoro-uracil]
immunostaining with anti-BrdU antibody (293T cells): positive immunostaining

O=[As]O [sodium arsenite]
time to formation of distinct G3BP foci (MDA231 cells): ≤ 1 h

O=c1cc[nH]c(=S)[nH]1 [thiouracil]
enrichment of human mRNAs compared to mouse mRNAs [1]: approximately 10 fold
